Laboratory results as given in patent publication US11208432B2, “Inhibitors of glucocorticoid receptor” (ORIC Pharmaceuticals, Inc., priority 2015, dated 2021).

Test system: AR
Assay: In Vitro AR Agonism Assay (LNAR reporter cell line)
Assay type: cell-based
Conditions: LNAR reporter cells, RPMI + 10% CSS, 18-24 hrs; maximum response of Mifepristone set to 1
Description: In Vitro AR Agonism Assay
The AR agonism assay was done in the LNAR reporter cell line which has overexpressed AR and 4×ARE-Luc genes. This cell line is sensitive to even minor partial AR agonism activity in hormone-deprived media (CSS). The assays were done in RPMI (without phenol red)+10% CSS using 6000 LNAR cells/well in 384-well plates and compounds were incubated with cells in […] incubator for 18-24 hrs. OneGlo reagent (25 uL/well) was added and plates were read with luminometer within 3 minutes.
To gauge the AR partial agonism activity, Mifepristone is included as a standard in the assay. AR agonism assay results are quantified by determining the ratio of the maximum response of individual compounds to the maximum response of Mifepristone (arbitrarily set to 1). Values of Table 4 are reported as Relative Maximum Response to Mifepristone. This general trend of AR agonism was shown for the class of compounds described herein.

| Structure (SMILES) | Relative Maximum Response to Mifepristone |
| --- | --- |
| CC#C[C@]1(O)CC[C@H]2[C@@H]3CCC4=CC(=O)CC[C@@H]4[C@H]3[C@@H](c3ccc(N(C)C)cc3)C[C@@]21C [Compound 3] | B (B: >0.4) |
| COc1ccc([C@H]2C[C@@]3(C)[C@@H](CC[C@@]3(O)C#CC3CC3)[C@@H]3CCC4=CC(=O)CC[C@]4(C)C23)cc1 (stereo partly drawn) [Compound 6] | A (A: ≤0.4) |
| CN(C)c1ccc([C@H]2C[C@@]3(C)[C@@H](CC[C@@]3(O)C#CC(C)(C)C)[C@@H]3CCC4=CC(=O)CC[C@@H]4[C@H]32)cc1 [Compound 7, (8R,9S,10R,11S,13S,14S,17S)-11-(4-(dimethylamino)phenyl)-17-(3,3-dimethylbut-1-yn-1-yl)-17-hydroxy-13-methyl-1,2,6,7,8,9,10,11,12,13,14,15,16,17-tetradecahydro-3H-cyclopenta[a]phenanthren-3-one] | A (A: ≤0.4) |
| COC(C)(C)C#C[C@]1(O)CC[C@H]2[C@@H]3CCC4=CC(=O)CC[C@@H]4[C@H]3[C@@H](c3ccc(N(C)C)cc3)C[C@@]21C [Compound 10, (8R,9S,10R,11S,13S,14S,17S)-11-(4-(Dimethylamino)phenyl)-17-hydroxy-17-(3-methoxy-3-methylbut-1-yn-1-yl)-13-methyl-1,2,6,7,8,9,10,11,12,13,14,15,16,17-tetradecahydro-3H-cyclopenta[a]phenanthren-3-one] | A (A: ≤0.4) |
| CC(C)C#C[C@]1(O)CC[C@H]2[C@@H]3CCC4=CC(=O)CC[C@]4(C)C3[C@@H](c3ccc(N(C)C)cc3)C[C@@]21C (stereo partly drawn) [Compound 13, (8S,10R,11S,13S,14S,17S)-11-(4-(Dimethylamino)phenyl)-17-hydroxy-10,13-dimethyl-17-(3-methylbut-1-yn-1-yl)-1,2,6,7,8,9,10,11,12,13,14,15,16,17-tetradecahydro-3H-cyclopenta[a]phenanthren-3-one] | A (A: ≤0.4) |

Same assay, conditions: in concentrations as low as 10 nM

| Structure (SMILES) | partial AR agonism |
| --- | --- |
| CC#C[C@]1(O)CC[C@H]2[C@@H]3CCC4=CC(=O)CCC4=C3[C@@H](c3ccc(N(C)C)cc3)C[C@@]21C [Mifepristone, reference compound] | strong partial AR agonism |
